This note sets out measurements from patent publication US8962608B2, “Cycloalkylnitrile pyrazole carboxamides as janus kinase inhibitors” (Merck Sharp & Dohme Corp., priority 2011, dated 2015).

pIC50: −log10 of the molar value.

Assay [1] addresses JAK1 (recombinant purified GST-tagged catalytic domain) (Homo sapiens (Human), UniProt P23458). The assay can be described thus: biochemical.
Assay [2] concerns the target JAK2 (recombinant purified GST-tagged catalytic domain) (Homo sapiens (Human), UniProt O60674). The assay can be described thus: biochemical.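 Also: biochemical JAK kinase assay with HTRF detection.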

JAK2 (recombinant purified GST-tagged catalytic domain), sequence (O60674 849-1124): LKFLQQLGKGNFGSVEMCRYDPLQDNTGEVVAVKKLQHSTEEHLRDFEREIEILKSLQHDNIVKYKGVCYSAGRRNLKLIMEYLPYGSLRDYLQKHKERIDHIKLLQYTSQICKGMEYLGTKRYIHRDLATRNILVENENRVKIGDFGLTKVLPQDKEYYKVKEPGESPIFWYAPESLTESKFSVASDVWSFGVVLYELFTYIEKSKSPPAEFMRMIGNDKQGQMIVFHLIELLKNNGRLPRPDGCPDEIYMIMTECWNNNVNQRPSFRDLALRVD
JAK1 (recombinant purified GST-tagged catalytic domain), sequence (P23458 875-1153): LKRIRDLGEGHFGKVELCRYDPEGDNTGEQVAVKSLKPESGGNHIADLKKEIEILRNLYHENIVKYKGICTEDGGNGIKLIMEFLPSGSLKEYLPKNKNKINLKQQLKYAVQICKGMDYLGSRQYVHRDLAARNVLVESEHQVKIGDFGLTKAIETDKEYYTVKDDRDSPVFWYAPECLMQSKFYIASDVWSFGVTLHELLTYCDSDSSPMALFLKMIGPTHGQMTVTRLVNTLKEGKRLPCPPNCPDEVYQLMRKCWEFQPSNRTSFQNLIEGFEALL

Regarding `N#C[C@H]1CC(N2CC[C@@H](F)C2)CC[C@@H]1n1cc(C(N)=O)c(Nc2ccc(S(=O)(=O)C(F)(F)F)cc2)n1` (single isomer, unassigned) [Example 28-159, 1-{(1S,2S or 1R,2R)-2-cyano-4-[(3R)-3-fluoropyrrolidin-1-yl]cyclohexyl}-3-({4-[(trifluoro-methyl)sulfonyl]phenyl}amino)-1H-pyrazole-4-carboxamide], the values for the pIC50 in assay [1] and in assay [2] were 8.70 and 7.74, respectively.

Regarding `N#C[C@H]1CC(NCC(=O)O)CC[C@@H]1n1cc(C(N)=O)c(Nc2ccc(S(=O)(=O)C(F)(F)F)cc2)n1` (single isomer, unassigned) [Example 28-160, N-{(3S,4S or 3R,4R)-4-[4-carbamoyl-3-({4-[(trifluoro-methyl)sulfonyl]phenyl}amino)-1H-pyrazol-1-yl]-3-cyanocyclohexyl}glycine], the values for the pIC50 in assay [1] and in assay [2] were 9.70 and 9.00, respectively.

With `N#C[C@H]1CC(NC(C2CC2)C2CC2)CC[C@@H]1n1cc(C(N)=O)c(Nc2ccc(S(=O)(=O)C(F)(F)F)cc2)n1` (single isomer, unassigned) [Example 28-164, 1-{(1S,2S,4R or 1R,2R,4S)-2-cyano-4-[(dicyclo-propylmethyl)amino]cyclohexyl}-3-({4-[(trifluoro-methyl)sulfonyl]phenyl}amino)-1H-pyrazole-4-carboxamide], the pIC50 is 8.40 in assay [1] and 6.65 in assay [2].

As for `N#C[C@H]1C[C@@H](NC(C2CC2)C2CC2)CC[C@@H]1n1cc(C(N)=O)c(Nc2ccc(S(=O)(=O)C(F)(F)F)cc2)n1` (single isomer, unassigned) [Example 28-180, 1-{(1S,2S,4S or 1R,2R,4R)-2-cyano-4-[(dicyclopropyl-methyl)amino]cyclohexyl}-3-({4-[(trifluoro-methyl)sulfonyl]phenyl}amino)-1H-pyrazole-4-carboxamide], the pIC50 was 9.22 in assay [1] and 7.41 in assay [2].

For `N#C[C@H]1CC(N(C2CC2)C2CC2)CC[C@@H]1n1cc(C(N)=O)c(Nc2ccc(S(=O)(=O)C(F)(F)F)cc2)n1` (single isomer, unassigned) [Example 28-181, 1-[(1S,2S or 1R,2R)-2-cyano-4-(dicyclopropylamino)cyclohexyl]-3-({4-[(trifluoro-methyl)sulfonyl]phenyl}amino)-1H-pyrazole-4-carboxamide], the values for the pIC50 in assay [1] and in assay [2] were 9.00 and 7.80, respectively.

Take `C[C@H](N[C@@H]1CC[C@H](n2cc(C(N)=O)c(Nc3ccc(C(F)(F)F)cc3)n2)[C@@H](C#N)C1)C1CC1` (single isomer, unassigned) [Example 28-190, 1-[(1S,2S,4R or 1R,2R,4S)-2-cyano-4-{[(1S)-1-cyclopropylethyl]amino}cyclo-hexyl]-3-{[4-(trifluoromethyl)phenyl]amino}-1H-pyrazole-4-carboxamide]: the pIC50 in assay [1] is 8.70; in assay [2], 6.57.

`C[C@H](NC1CC[C@H](n2cc(C(N)=O)c(Nc3ccc(C(F)(F)F)cc3)n2)[C@@H](C#N)C1)C1CC1` (single isomer, unassigned) [Example 28-191, 1-[(1S,2S or 1R,2R)-2-cyano-4-{[(1S)-1-cyclopropylethyl]amino}cyclo-hexyl]-3-{[4-(trifluoromethyl)phenyl]amino}-1H-pyrazole-4-carboxamide]: the pIC50 is 9.05 in assay [1] and 6.98 in assay [2].

As for `N#C[C@H]1C[C@@H](N[C@H](C2CC2)C(F)(F)F)CC[C@@H]1n1cc(C(N)=O)c(Nc2ccc(C(F)(F)F)cc2)n1` (single isomer, unassigned) [Example 28-192, 1-[(1S,2S,4S or 1R,2R,4R)-2-cyano-4-{[(1S)-1-cyclopropyl-2,2,2-trifluoroethyl]amino}cyclo-hexyl]-3-{[4-(trifluoromethyl)phenyl]amino}-1H-pyrazole-4-carboxamide], the pIC50 is 8.70 in assay [1] and 7.17 in assay [2].

Broadly, the pIC50 is −log10 of the IC50, conventionally taken in molar units.
